We go through 1 compound from PMC8419995, “In vitro and in vivo efficacy of thiacloprid against Echinococcus multilocularis” (Parasites & Vectors, 2021).

Each structure is given as a SMILES string. Like-named read-outs stand apart in the source and are kept apart here.

The test system of series [1] is Reuber rat hepatoma (RH) cells. The experiment in a line: alamarBlue cytotoxicity assay, RH cells. The format is cell-based. The conditions noted are these: 120 h, 5 days. The protocol: An alamarBlue assay was used to assess the toxicity of thiacloprid to confluent and pre-confluent mammalian cells in vitro [29]. Human foreskin fibroblasts (HFF, Procell) and rat hepatoma cells (RH, Procell) were seeded into 96-well cell culture plates in DMEM supplemented with 10% FBS and 1% penicillin–streptomycin at 37 °C and 5% CO2. For detecting the growth inhibitory effects of confluent cells, HFF and RH cells were seeded at 10,000 cells per well and 50,000 cells per well, respectively. After overnight culture, thiacloprid or PZQ was added and diluted in serial concentrations (0, 0.6, 1.2, 2.5, 5, 10, 20, 40, 80 and 160 μM). For detecting growth inhibitory effects on proliferating cells, cells were seeded at 1000 (HFF) and 5000 (RH) cells per well. Thiacloprid was added after 5 h of cell attachment. To measure the viability of the cells after treatment for 5 days, the alamarBlue assay was employed and viability calculated as described previously.

Series [2] has as its system E. multilocularis germinal cells. The experiment in a line: CellTiter-Glo viability assay on germinal cells. The format is cell-based, Echinococcus multilocularis. The settings on record: 5 days. The protocol:
To evaluate the activity of thiacloprid against parasitic stem cells, germinal cells from in vitro metacestode vesicles were investigated as described by Spiliotis et al.. Briefly, 20 units of cells were distributed into a black 384-well plate. Different concentrations of thiacloprid or PZQ (0, 0.06, 1.2, 2.5, 5, 10, 20, 40, 80 and 160 μM) were added to the cells. After culture at 37 °C for 5 days under a humid nitrogen atmosphere, 25 μl CellTiter-Glo containing 1% Triton X-100 was added. The plates were incubated at room temperature in the dark for 15 min. After the total destruction of the cellular aggregates, luminescence was measured using an Infinite M200 PRO reader (Tecan), and 0 μM values were set to 100% viability. The IC50 values were calculated using an online IC50 calculator after logit-log transformation. Four independent replicates were conducted.

The subject of the next series is acetylcholinesterase. The experiment in a line: Acetylcholinesterase activity (Ellman) in extracts of protoscoleces, metacestodes and germinal cells. The format is biochemical, Echinococcus multilocularis. The settings on record: extract; thiacloprid 5 μM, 37 °C 10 min; BW284c51 positive control. The protocol:
The effects of thiacloprid on the acetylcholinesterase activity of E. multilocularis protoscoleces, metacestodes and germinal cells were determined according to a previously described method. The protoscoleces, metacestode and germinal cells were washed twice with PBS and homogenized with an electric homogenizer in precooled PBS. Centrifugation of the homogenates was performed at 100,000×g for 30 min. The protein concentration of the supernatant was determined by the modified Lowry method according to the instructions, and the concentration was adjusted to 2 mg/ml. Thiacloprid (5 μM) was added to the extract and incubated at 37 °C for 10 min. The extract was supplemented with 0.1% DMSO as control. Subsequently, acetylcholinesterase activity was assessed according to Ellman’s procedure using a microplate with 260 µl of 0.1 M PBS buffer pH 8.0, 10 µl of 10 mM dithiobisnitrobenzoic acid solution, 2.5 µl of 75 mM substrate (acetylthiocholine iodide) and 25 µl of the sample treated with thiacloprid. The OD increment was measured at 412 nm using an Infinite M200 PRO reader (Tecan). Each experiment was conducted three times. BW284c51 (CAS number: 402-40-4, Sigma) was used as a positive control.

Series [3] has as its system E. multilocularis protoscoleces and germinal cells. Briefly: Glucose consumption (2-deoxyglucose uptake). The format is cell-based, Echinococcus multilocularis. Here is the method:
Glucose consumption in E. multilocularis protoscoleces and germinal cells was detected using the Screen Quest Colorimetric Glucose Uptake Assay Kit (AAT Bioquest, Sunnyvale, CA, USA). The newly separated protoscoleces were washed twice with Krebs–ringer phosphate HEPES (KRPH) buffer and then resuspended in 1 ml glucose uptake buffer for 1 h. Each well contained about 200 protoscoleces. Isolated E. multilocularis germinal cells were resuspended with serum-free DMEM and cultured overnight in nitrogen at 37 °C. Germinal cells were then washed twice with KPRH buffer and resuspended in 90 μl glucose uptake buffer for 1 h. Subsequently, the protoscoleces and germinal cells were added with 10 μl thiacloprid (5 μM) for 1 h, and treated with 10 μl 2-deoxyglucose (2DG) for 1 h. The germinating cells treated with thiacloprid were labeled with mitochondria red fluorescent probe (Beyotime, Shanghai, China) and the percentage of living cells was measured by flow cytometry. The protoscoleces and germinal cells were washed twice with KRPH buffer and then lysed with 25 μl acidic lysis buffer in an Eppendorf tube (EP) for 30 min. A neutralizing buffer was added to each well and left at room temperature for 20 min to neutralize the lysate. […] Lastly, the mixture was transferred to a 96-well cell culture plate and the absorbance was measured at 570 nm using an Infinite M200 PRO reader (Tecan). […]

On the set-up of series [4]: method as in PMID 21786385. The conditions noted are these: cited from earlier work.

As to `N#C/N=C1\SCCN1Cc1ccc(Cl)nc1` [thiacloprid], the IC50 (as a rule, the point on the concentration scale where inhibition reaches its midpoint) in series [1] (confluent cells, read-out: IC50 on confluent RH cells) stood at 91.4 ± 1.33 µM; in series [1] (pre-confluent cells, read-out: IC50 on pre-confluent RH cells) it was 74.3 ± 10.8 µM; in series [2] (Echinococcus multilocularis, 120 h, CellTiter-Glo, read-out: IC50 against germinal cells) it was 2.89 ± 0.34 µM. In addition, the viability (as a rule, a per cent measure of how many cells are alive, often set against a control) at 2.5 µM in series [2] (Echinococcus multilocularis, 120 h, 2.5 μM, read-out: Cell viability rate of germinal cells) was found to be 58.3 ± 6.09%. Besides, in series [2] (Echinococcus multilocularis, 120 h, 5 μM, read-out: Cell viability rate of germinal cells), the viability at 5 µM was found to be 38.3 ± 4.47%. Also, the “Inhibition rate of germinal cell viability” value in series [2] (more than 10 μM) was “more than 80%”. Moreover, the “Acetylcholinesterase activity in protoscoleces, metacestode vesicles and germinal cells” value in the series on acetylcholinesterase is “suppressed”. In series [3] (5 μM, 1 h), the “Uptake of 2-DG by protoscoleces and germinal cells” value is listed as “reduced uptake”. For the same compound, in series [3] (treatment for 1 h), the “Viability of protoscoleces and germinal cells” value was “not affected”. In series [4], the “Dose that can cause hepatocellular necrosis and hydropic degeneration” value is on record as 22.5 mg/kg.
